Assays:
[1] = system: human-derived tracheal/bronchial epithelial cells (EpiAirway Tissue Model); assay: Transepithelial electrical resistance (TER) of an epithelial cell monolayer; format: cell-based; settings: for activity at 1000 µM: Homo sapiens, Epithelial cell, 1 h, read-out: Mean % of Original TER Value
Description: Inserts are feed for each day of recovery. TER measurements were accomplished using the Endohm-12 Tissue Resistance Measurement Chamber connected to the EVOM Epithelial Voltohmmeter (World Precision Instruments, Sarasota, Fla.) with the electrode leads. The electrodes and a tissue culture blank insert were equilibrated for at least 20 minutes in MatTek medium with the power off prior to checking calibration. The background resistance was measured with 1.5 ml media in the Endohm tissue chamber and 300 μl media in the blank insert. The top electrode was adjusted so that it was close to, but not making contact with, the top surface of the insert membrane. Background resistance of the blank insert was about 5-20 ohms. […] TER values are a function of the surface area of the tissue. […] By this method of calculation, TER will be expressed as both Ohms*cm2 and percent original TER value. […] Several different lipid types (see Table 1) were screened to select for lipids that are capable of enhancing the permeation of a biological agent across an epithelial cell monolayer. […] A reduction in TER correlates with the ability to enhance the permeation of a molecule and biological agent across an epithelia.

[2] = system: human-derived tracheal/bronchial epithelial cells (EpiAirway Tissue Model); assay: in vitro
Description: Normal, human-derived tracheal/bronchial epithelial cells will serve as the model cell system for assessing the lipids listed in Table 1. The cells are supplied by MatTek Corp. (Ashland, Mass.) as the EpiAirway™ Tissue Model. The cells are provided as a confluent monolayer on a Millipore Milicell-CM cell culture insert with a pore size of 0.4 μM, inner diameter of 0.8 cm and surface area of 0.6 cm^2 and comprised of transparent hydrophilic Teflon (PTFE). Upon receipt, the membranes are cultured in 1 ml basal media (phenol red-free and hydrocortisone-free Dulbecco's Modified Eagle's Media (DMEM) at 37° C./5% CO2 for 24-48 hours before use. Inserts are feed for each day of recovery.
The amount of cell death was assayed by measuring the loss of lactate dehydrogenase (LDH) from the cells using a CytoTox 96 Cytotoxicity Assay Kit (Promega Corp., Madison, Wis.). A treatment of 1% Octylphenolpoly(ethyleneglycolether)x (Triton X-100™) diluted in PBS was used as a lysis control. One percent Triton X-100™ mediated cell lysis was normalized to 100%. For basal-lateral LDH levels, triplicates of 50 μl of the basal media were loaded into a 96-well assay plate. For apical LDH levels, 150 μl of Epi-Cm was added to the apical side of each chamber and mixed by pipeting. One hundred and fifty microliters was then removed and diluted 2-fold prior to performing the LDH assay. All apical LDH assay were performed in triplicate and with 50 μl of the diluted test solution. Fresh, cell-free culture medium will be used as a blank. Total LDH levels were determined by lysing cells in a final concentration of 0.9% Triton-X100™. Fifty microliters of substrate solution was added to each well and the plates incubated for 30 minutes at room temperature in the dark. Following incubation, 50 μl of stop solution was added to each well and the plates read on an optical density plate reader at […]. Cytotoxicity was expressed as a percentage calculated by subtracting the average absorbance of the PBS control wells as the endogenously released LDH level and expressing that value relative to the average Triton-X100 control, which represents total LDH content. [formula] Osmolality
For the instant application, phosphate buffered saline (PBS) served as a negative control for both the TER assay and LDH (cytotoxicity) assay. […] TER measurements and LDH levels were taken immediately after a one hour treatment of the cultured cells with each lipid, unless specified otherwrise.
TER reduction was expressed as the percent decrease in TER value from time zero to one hour post-treatment. Thus, greater percent reduction in TER represents less electrical resistance across the epithelial cell monolayer and consequently greater epithelial cell permeation. Cytotoxicity (LDH levels) for each lipid was expressed as a percent of the LDH levels measured after Triton-X100 treatment of the cells. Triton-X100™ LDH levels were normalized to 100%.

[3] = system: human-derived tracheal/bronchial epithelial cells (EpiAirway Tissue Model); assay: FITC-Dextran permeation assay across epithelial cell monolayer; format: cell-based; settings: for Mean % FD3 Permeation: FITC-dextran 3000 (Table 4); for permeation of FD3 relative to negative controls: text summary of Table 4
Description: Each tissue insert was placed in an individual well containing 1 ml of MatTek basal media. On the apical surface of the inserts, 20 μl of test formulation was applied according to study design, and the samples were placed on a shaker (˜100 rpm) for 1.5 hours at 37° C. FITC-labeled dextran solution was added to inserts apically and a fluorescence measurement was taken from the basolateral media after the incubation period. Two hundred microliters of the basal media for each test formulation was transferred to a dark-wall fluorescent reading plate. Each test formulation was tested in triplicate. Fluorescent intensity was measured at 470 nM with the microplate fluorescence reader FLx800 (Bio-Tek Instruments, Inc., Winooski, Vt.). A FITC labeled dextran with a molecular weight of 3 kDA, 10 kDA, 20 kDA, 40 kDA, 70 kDA and/or 500 kDA was used to assess the ability of individual lipids to deliver a model protein across an epithelia.
Permeation is expressed as percent permeation and was calculated as follows: [formula] [formula] Terms
PBS and 0.3% Triton-X100™ served as […]. […] FD permeation was presented as the percent of FD that crossed from the apical side of the epithelial cell monolayer to the basolateral cell surface.

[4] = lipid 1000 μM, percent decrease in TER from time zero
[5] = lipid 1000 μM, percent of Triton-X100 LDH levels
[6] = lipid 1000 μM, lower value = greater TER reduction (Table 4)
[7] = lipid 125 μM, percent of Triton-X100 LDH levels
[8] = lipid 250 μM, percent of Triton-X100 LDH levels
[9] = lipid 500 μM, percent of Triton-X100 LDH levels
[10] = positive controls, concentration N/A (Special Sauce; 0.3% Triton-X100)
[11] = positive controls: Special Sauce 1X, 1% Triton (Table 4)

1,3-Di(3-sn-Phosphatidyl)-sn-Glycerol Disodium Salt [Cardiolipin (sodium salt)]
Mean TER Reduction 1 hr. Post-treatment [1, 4]: 32% | Cytotoxic Effect (LDH) 1 hr. Post-treatments [2, 5]: 21%

CCCCCCCCCCCCCCCCOC[C@H](CO)OC(C)=O [C16-02:0 DG, 1-O-Hexadecyl-2-Acetoyl-sn-Glycerol]
Mean % FD3 Permeation ([3]; lipid 1000 μM): 0% | activity at 1000 µM [1, 6]: 98% | Mean % Relative Cytotoxic Effect (LDH) ([2]; human, 1 h, 1000 μM): −3%

CCCCCCCCCCCCC/C=C/[C@@H](O)[C@H](COP(=O)(O)O)NC(C)=O.N [N-acetoyl ceramide-1-phosphate, (2S,3R,4E)-2-Acetoylaminooctadec-4-Ene-1,3-Diol-1-Phosphate (Ammonium Salt)]
Mean TER Reduction 1 hr. Post-treatment ([1]; lipid 125 μM): 24% | Mean TER Reduction 1 hr. Post-treatment ([1]; lipid 250 μM): 23% | Mean TER Reduction 1 hr. Post-treatment ([1]; lipid 500 μM): 29% | Mean TER Reduction 1 hr. Post-treatment [1, 4]: 42% | Cytotoxic Effect (LDH) 1 hr. Post-treatments [2, 7]: 2% | Cytotoxic Effect (LDH) 1 hr. Post-treatments [2, 8]: 2% | Cytotoxic Effect (LDH) 1 hr. Post-treatments [2, 9]: 2% | Cytotoxic Effect (LDH) 1 hr. Post-treatments [2, 5]: 2%

1-Alkyl-2-Hydroxy-sn-Glycero-3-Phosphocholine [Lyso-Platelet-Activation Factor]
Mean TER Reduction 1 hr. Post-treatment ([1]; lipid 62.5 μM): 48% | Mean TER Reduction 1 hr. Post-treatment ([1]; lipid 125 μM): 23% | Mean TER Reduction 1 hr. Post-treatment ([1]; lipid 250 μM): 29% | Mean TER Reduction 1 hr. Post-treatment ([1]; lipid 500 μM): 61% | Mean TER Reduction 1 hr. Post-treatment [1, 4]: 84% | Cytotoxic Effect (LDH) 1 hr. Post-treatments ([2]; lipid 62.5 μM, percent of Triton-X100 LDH levels): 2% | Cytotoxic Effect (LDH) 1 hr. Post-treatments [2, 7]: 3% | Cytotoxic Effect (LDH) 1 hr. Post-treatments [2, 8]: 6% | Cytotoxic Effect (LDH) 1 hr. Post-treatments [2, 9]: 22% | Cytotoxic Effect (LDH) 1 hr. Post-treatments [2, 5]: 34%

CCCCCCCCCCCCCCCCOC[C@H](COP(=O)(O)OCC[N+](C)(C)C)OC [2-O-Methyl-PAF, 1-O-Hexadecyl-2-O-Methyl-sn-Glycero-3-Phosphorylcholine]
Mean % FD3 Permeation ([3]; lipid 500 μM): 7% | Mean % FD3 Permeation ([3]; lipid 1000 μM): 16% | permeation of FD3 relative to negative controls [3]: enhanced the permeation of FD3 above that of the negative controls | Mean % of Original TER Value ([1]; lipid 500 μM (Table 4)): 8% | Mean % of Original TER Value [1, 6]: 2% | Mean % Relative Cytotoxic Effect (LDH) ([2]; lipid 500 μM (Table 4)): 18% | Mean % Relative Cytotoxic Effect (LDH) ([2]; lipid 1000 μM (Table 4)): 20%

Octylphenolpoly(ethyleneglycolether)x [Triton-X100, reference compound]
% of the original TER value ([1]; controls of the further test of lipids at 250 μM to 1000 μM (b219-b220)): −6% | Mean TER Reduction 1 hr. Post-treatment [1, 10]: 100% | Mean % of Original TER Value [1, 11]: −7% | % Relative Cytotoxic Effect (LDH) ([2]; in the presence of FITC-Dextran FD3 (Table 6)): 99% | Cytotoxic Effect (LDH) 1 hr. Post-treatments [2, 10]: 100% | Mean % Relative Cytotoxic Effect (LDH) [2, 11]: 100% | % Cytotoxicity ([2]; treatment alone, no lipid, apical LDH release (Table 8), Triton 0.3%): 100%

CCCCCCCCCCCCC/C=C/[C@@H](O)[C@@H](N)CO[C@@H]1O[C@H](CO)[C@H](O)[C@H](O)[C@H]1O [Galactosyl sphingosine, D-Galactosyl-β1-1′-D-erythro-Sphingosine]
Mean TER Reduction 1 hr. Post-treatment ([1]; lipid 125 μM): 36% | Mean TER Reduction 1 hr. Post-treatment ([1]; lipid 250 μM): 43% | Mean TER Reduction 1 hr. Post-treatment ([1]; lipid 500 μM): 42% | Mean TER Reduction 1 hr. Post-treatment [1, 4]: 91% | Cytotoxic Effect (LDH) 1 hr. Post-treatments [2, 7]: 2% | Cytotoxic Effect (LDH) 1 hr. Post-treatments [2, 8]: 3% | Cytotoxic Effect (LDH) 1 hr. Post-treatments [2, 9]: 2% | Cytotoxic Effect (LDH) 1 hr. Post-treatments [2, 5]: 26%

CCCCCCCCCCCCCCCCOC[C@H](COP(=O)([O-])OCC[N+](C)(C)C)OC(=O)CCC [C16-04:0 PC, 1-O-Hexadecyl-2-Butyroyl-sn-Glycero-3-Phosphocholine]
Mean % FD3 Permeation ([3]; lipid 1000 μM): 7% | permeation of FD3 relative to negative controls [3]: enhanced the permeation of FD3 above that of the negative controls | activity at 1000 µM [1, 6]: 0% | Mean % Relative Cytotoxic Effect (LDH) ([2]; human, 1 h, 1000 μM): 22%

CCCCCCCCCCCCCCCC(=O)OC[C@H](COP(=O)([O-])OCC[N+](C)(C)C)OC(C)=O [16:0-02:0 PC, 1-Palmitoyl-2-Acetoyl-sn-Glycero-3-Phosphocholine]
Mean % FD3 Permeation ([3]; lipid 1000 μM): 8% | activity at 1000 µM [1, 6]: 25% | Mean % Relative Cytotoxic Effect (LDH) ([2]; lipid 1000 μM (Table 4)): 23%

1-Alkyl-2-Acetoyl-sn-Glycero-3-Phosphocholine [Platelet-Activation Factor]
Mean TER Reduction 1 hr. Post-treatment [1, 4]: 35% | Cytotoxic Effect (LDH) 1 hr. Post-treatments [2, 5]: 19%

CCCCCCCCCCCCCCCCCCOC[C@H](COP(=O)([O-])OCC[N+](C)(C)C)OC(=O)CCC [C18-04:0 PC, 1-O-Octadecyl-2-Butyroyl-sn-Glycero-3-Phosphocholine]
Mean % FD3 Permeation ([3]; lipid 1000 μM): 0% | activity at 1000 µM [1, 6]: 85% | Mean % Relative Cytotoxic Effect (LDH) ([2]; human, 1 h, 1000 μM): −3%

CCCCCCCCCCCCCCCCOC[C@H](COP(=O)([O-])OCC[N+](C)(C)C)OC(=O)NC [C-PAF, 1-O-Hexadecyl-2-N-Methylcarbamyl-sn-Glycero-3-Phosphocholine]
Mean % FD3 Permeation ([3]; lipid 500 μM): 11% | Mean % FD3 Permeation ([3]; lipid 1000 μM): 12% | permeation of FD3 relative to negative controls [3]: enhanced the permeation of FD3 above that of the negative controls | Mean % of Original TER Value ([1]; lipid 500 μM (Table 4)): 10% | Mean % of Original TER Value [1, 6]: 2% | Mean % Relative Cytotoxic Effect (LDH) ([2]; lipid 500 μM (Table 4)): 11% | Mean % Relative Cytotoxic Effect (LDH) ([2]; lipid 1000 μM (Table 4)): 15%

CCCCCCCCCCCCCCCCOC[C@H](COP(=O)(O)OCC[N+](C)(C)C)OCC [2-O-Ethyl-PAF, 1-O-Hexadecyl-2-O-Ethyl-sn-Glycero-3-Phosphorylcholine]
Mean % FD3 Permeation ([3]; lipid 500 μM): 1% | Mean % FD3 Permeation ([3]; lipid 1000 μM): 2% | permeation of FD3 relative to negative controls [3]: enhanced the permeation of FD3 above that of the negative controls | Mean % of Original TER Value ([1]; lipid 500 μM (Table 4)): 112% | Mean % of Original TER Value [1, 6]: 70% | Mean % Relative Cytotoxic Effect (LDH) ([2]; lipid 500 μM (Table 4)): 1% | Mean % Relative Cytotoxic Effect (LDH) ([2]; lipid 1000 μM (Table 4)): 2%

CCCCCCCCCCCCCCCCOC[C@@H](O)COP(=O)([O-])OCC[N+](C)(C)C [C16 Lyso-PAF, 1-O-Hexadecyl-2-Hydroxy-sn-Glycero-3-Phosphocholine]
% FITC-Dextran Permeation FD10 ([3]; lipid 1000 μM): 6% | % FITC-Dextran Permeation FD40 ([3]; lipid 1000 μM): 2% | % FITC-Dextran Permeation FD3 ([3]; lipid 1000 μM (Table 5)): 8% | Mean % FD3 Permeation ([3]; lipid 1000 μM): 6% | permeation of FD3 relative to negative controls [3]: enhanced the permeation of FD3 above that of the negative controls | activity at 1000 µM [1, 6]: 14% | Mean % Relative Cytotoxic Effect (LDH) ([2]; lipid 1000 μM (Table 4)): 26%

— patent US20070077283A1, “METHOD OF ENHANCING TRANSMUCOSAL DELIVERY OF THERAPEUTIC COMPOUNDS” (Nastech Pharmaceutical Company Inc., priority 2005, published 2007)
